Measured values reported in PMC8945778, “Functional Characterization of Serotonin N-Acetyltransferase in Archaeon Thermoplasma volcanium” (Antioxidants, 2022).

Target: T1, TvSNAT (Thermoplasma volcanium, UniProt Q97CT7)
T1 construct: gene TVG0012647
Assay: HPLC of N-acetylserotonin, dose-dependent inhibition of serotonin acetylation
Assay type: biochemical
Details: serotonin 0.5 mM; acetyl-CoA 0.5 mM; pH 8.8; 45 °C; suggested alternative substrate; 50% point read by authors, no fit; read-out: SNAT activity decreased to 50%

T1 sequence (Q97CT7 entry or part of it): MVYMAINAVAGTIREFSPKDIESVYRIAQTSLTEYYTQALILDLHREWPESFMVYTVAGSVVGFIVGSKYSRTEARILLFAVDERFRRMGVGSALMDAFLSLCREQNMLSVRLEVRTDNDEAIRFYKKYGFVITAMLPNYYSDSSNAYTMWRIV

| Structure (SMILES) | IC50 |
| --- | --- |
| NC[C@H](O)c1ccc(O)cc1 [octopamine] | ~500 µM |
| NCCCCNCCCN [spermidine] | ~100 µM |
